What was measured:
HT55 = assay: Cytotoxicity test, luminescent cell viability; format: cell-based; conditions: Homo sapiens; HT55 (Colon carcinoma), 72-hour incubation
Description: (§1) Cytotoxicity of compounds was investigated using SHP77 (SCLC ATCC No. CRL-2195), NCI-H82 (SCLC, Jennio-bio No. JNO-22126A), NCI-H524 (SCLC, Pricella NO. CL-0403), NCI-H226 (Lung cancer, Pricella NO. CL-0396), NCI-H460 (LCLC, Pricella NO. CL-0299), OVCAR3 (Ovarian cancer, ATCC No. HTB-161), OV90 (Ovarian cancer, ATCC No. CRL-11732), LS1034 (Colon carcinoma, cobioer No. CBP60013), HT55 (Colon carcinoma, cobioer No. CBP60012), MDA-MB-468 (Breast cancer, ATCC No.htb-132) and NCI-N87 (Stomach cancer, ATCC No.CRL-5822). In brief, 5,000 cells/well of cancer cells were platted in white 96-well assay plates with flat clear bottom (Cat. No. BS-MP-96W, Biosharp) (excluding edge wells, which contained medium or PBS only) in 90 μL basic culture medium and were grown at 37° C. in a humidified incubator at 5% CO2 atmosphere. After incubation overnight, each compound was added to the respective wells in an amount of 10 μl of 10× concentrate tests from 100 nM to 0.015 nM. After additional 72-hour incubation, plates were removed from incubator and equilibrated to room temperature. After approximately 30 mins, 50 μL of Cell counting-lite 2.0 Luminescent Cell Viability Assay (Cat. No. G7573, Promega) were added to each well. After shaking the plates at 450 rpm for 3 mins followed by 10-min incubation without shaking, luminescence was measured on the Envision plate reader (Equipment No. 2104, PerkinElmer) with integration time of 250 ms per well. Curves of luminescence versus concentration (nM) were fitted with GraphPad Prism Software.

LS1034 = assay: Cytotoxicity test, luminescent cell viability; format: cell-based; conditions: Homo sapiens, LS-1034; LS1034 (Colon carcinoma), 72-hour incubation
Description: as §1

MDA-MB-468 = assay: Cytotoxicity test, luminescent cell viability; format: cell-based; conditions: Homo sapiens; MDA-MB-468 (Breast cancer), 72-hour incubation
Description: as §1

NCI-H226 = assay: Cytotoxicity test, luminescent cell viability; format: cell-based; conditions: Homo sapiens; NCI-H226 (Lung cancer), 72-hour incubation
Description: as §1

NCI-H460 = assay: Cytotoxicity test, luminescent cell viability; format: cell-based; conditions: Homo sapiens; NCI-H460 (LCLC), 72-hour incubation
Description: as §1

NCI-H524 = assay: Cytotoxicity test, luminescent cell viability; format: cell-based; conditions: Homo sapiens; NCI-H524 (SCLC), 72-hour incubation
Description: as §1

NCI-H82 = assay: Cytotoxicity test, luminescent cell viability; format: cell-based; conditions: Homo sapiens; NCI-H82 (SCLC), 72-hour incubation
Description: as §1

NCI-N87 = assay: Cytotoxicity test, luminescent cell viability; format: cell-based; conditions: Homo sapiens; NCI-N87 (Stomach cancer), 72-hour incubation; read-out: IC50 NC-N87
Description: as §1

OV90 = assay: Cytotoxicity test, luminescent cell viability; format: cell-based; conditions: Homo sapiens, OV-90; OV90 (Ovarian cancer), 72-hour incubation
Description: as §1

OVCAR3 = assay: Cytotoxicity test, luminescent cell viability; format: cell-based; conditions: Homo sapiens, OVCAR-3; OVCAR3 (Ovarian cancer), 72-hour incubation
Description: as §1

SHP77 = assay: Cytotoxicity test, luminescent cell viability; format: cell-based; conditions: Homo sapiens; SHP77 (SCLC), 72-hour incubation
Description: as §1

[1] = Membrane permeability test (Caco-2 monolayer); format: in vitro ADME; conditions: human, Caco-2, pH 7.4
Method: Caco-2 cells purchased from ATCC were seeded onto 0.4 μm pore polycarbonate membranes (PC) in 96-well Corning Insert plates at 3.5×10^4 cells/cm^2, and refreshed medium every 4˜5 days until to the 21st to 28th day for confluent cell monolayer formation.
The transport buffer in the study was HBSS with 10.0 mM HEPES at pH 7.40±0.05. Each test compound was tested at 2.00 μM in the presence or absence of 1.00 μM zosuquidar bi-directionally in duplicate. Digoxin was tested at 10.0 μM in the presence or absence of 1.00 μM zosuquidar bi-directionally in duplicate, while nadolol and metoprolol were tested at 2.00 μM in the absence of zosuquidar in A to B direction in duplicate. Final DMSO concentration was adjusted to less than 1%. The plate was incubated for 2 hours in CO2 incubator at 37.0° C., with 5% CO2 at saturated humidity without shaking. And all samples after mixed with acetonitrile containing internal standard were centrifuged at 3220×g for 10 min. Concentrations of test compounds in starting solution, donor solution and receiver solution were quantified by LC-MS/MS methodologies, using peak area ratio of analyte/internal standard. And permeation of lucifer yellow through the monolayer was measured to evaluate the cellular integrity.
The apparent permeability coefficient Papp (cm/s) was calculated using the equation: […]
where dCr/dt is the cumulative concentration of compound in the receiver chamber as a function of time; Vr is the solution volume in the receiver chamber (0.0750 mL on the apical side, 0.250 mL on the basolateral side); A is the surface area for the transport, i.e., 0.143 cm2 for the area of the monolayer; C0 is the initial concentration in the donor chamber.

SMILES	IC50 (HT55)	IC50 (LS1034)	IC50 (MDA-MB-468)	IC50 (NCI-H226)	IC50 (NCI-H460)	IC50 (NCI-H524)	IC50 (NCI-H82)	IC50 (NCI-N87)	IC50 (OV90)	IC50 (OVCAR3)	IC50 (SHP77)	Papp A→B at 2 h, 2 μM [1]
CC[C@@]1(O)C(=O)OCc2c1cc1n(c2=O)Cc2c-1nc1cc(F)c(C)c3c1c2[C@H](NC(=O)C1COC1)CC3 [Compound 4]	349 nM	249 nM	6.7 nM	44.6 nM	31.2 nM	90.6 nM	1500 nM	29.6 nM	76 nM	395 nM	655 nM	0.026 ×10⁻⁶ cm/s
CC[C@@]1(O)C(=O)OCc2c1cc1n(c2=O)Cc2c-1nc1cc(F)c(C)c3c1c2[C@H](NC(=O)CCOC)CC3 [Compound 5]	192 nM	158 nM	5.1 nM	9.8 nM	19.4 nM	21.5 nM	288 nM	16.8 nM	9.6 nM	270 nM	202 nM	0.105 ×10⁻⁶ cm/s
CC[C@@]1(O)C(=O)OCc2c1cc1n(c2=O)Cc2c-1nc1cc(F)c(C)c3c1c2[C@H](NC(=O)CC(C)C)CC3 [Compound 8]	110 nM	159 nM	2.1 nM	6 nM	4.5 nM	21 nM	53.8 nM	4.7 nM	17.8 nM	95.7 nM	156 nM	
CCCCC(=O)N[C@@H]1CCc2c(C)c(F)cc3nc4c(c1c23)Cn1c-4cc2c(c1=O)COC(=O)[C@]2(O)CC [Compound 1]	130 nM	63.5 nM	2.5 nM	4.8 nM	10.2 nM	4.4 nM	96 nM	6.2 nM	3.9 nM	92.9 nM	45.7 nM	0.365 ×10⁻⁶ cm/s
CC[C@@]1(O)C(=O)OCc2c1cc1n(c2=O)Cc2c-1nc1cc(F)c(C)c3c1c2[C@H](NC(=O)C1CC1)CC3 [Compound 3]	68.1 nM	41.7 nM	2.1 nM	3.6 nM	8.9 nM	11.3 nM	50.2 nM	5.3 nM	5.1 nM	91.2 nM	60 nM	0.279 ×10⁻⁶ cm/s
CC[C@@]1(O)C(=O)OCc2c1cc1n(c2=O)Cc2c-1nc1cc(F)c(C)c3c1c2[C@H](NC(=O)C1CCC1)CC3 [Compound 6]	215 nM	55.3 nM	2.5 nM	3.8 nM	6.8 nM	9.9 nM	57.3 nM	3.5 nM	8.9 nM	89.3 nM	68 nM	0.264 ×10⁻⁶ cm/s
CC[C@@]1(O)C(=O)OCc2c1cc1n(c2=O)Cc2c-1nc1cc(F)c(C)c3c1c2[C@H](NC(=O)C1CCCO1)CC3 (some centres unmarked) [Compound 7]	104 nM	170 nM	4.8 nM	17.9 nM	11.2 nM	39.5 nM	171 nM	7.4 nM	26 nM	144 nM	236 nM	0.56 ×10⁻⁶ cm/s
CC[C@@]1(O)C(=O)OCc2c1cc1n(c2=O)Cc2c-1nc1cc(F)c(C)c3c1c2[C@H](NC(=O)C(C)C)CC3 [Compound 10]	69.6 nM	114 nM	2.9 nM	5.1 nM	7.4 nM	17.9 nM	61.7 nM	5.2 nM	9.8 nM	68.1 nM	101 nM	0.358 ×10⁻⁶ cm/s
CC[C@@]1(O)C(=O)OCc2c1cc1n(c2=O)Cc2c-1nc1cc(F)c(C)c3c1c2[C@H](NC(=O)CN(C)C)CC3 [Compound 2]	315 nM	205 nM	10.8 nM	21 nM	15.5 nM	40.4 nM	154 nM	13 nM	15.2 nM	208 nM	301 nM	0.199 ×10⁻⁶ cm/s

Reference: US20250376479A1, “EXATECAN DERIVATIVES AND USES THEREOF” (priority 2024, published 2025)
